Test results published in the NIST ThermoML archive (doi:10.1016/j.jct.2009.11.014).

Conditions: Liquid; for mass density: vibrating tube; for viscosity: Stony Brook Scientific falling needle HPHTV-100 viscometer

CCCCCCCC[n+]1ccn(C)c1.F[B-](F)(F)F [1-methyl-3-octylimidazolium tetrafluoroborate]
Conditions	mass density [kg/m3]	viscosity [mPa·s]
283.15 K, 100 kPa	1114.58	–
283.15 K, 2000 kPa	1115.49	–
283.15 K, 4000 kPa	1116.46	–
283.15 K, 6000 kPa	1117.44	–
283.15 K, 8000 kPa	1118.4	–
283.15 K, 10000 kPa	1119.31	–
283.15 K, 12000 kPa	1120.25	–
283.15 K, 14000 kPa	1121.19	–
283.15 K, 20000 kPa	1123.96	–
283.15 K, 30000 kPa	1128.45	–
283.15 K, 40000 kPa	1132.79	–
283.15 K, 50000 kPa	1136.9	–
283.15 K, 60000 kPa	1140.94	–
283.53 K, 140 kPa	–	774.7
283.53 K, 680 kPa	–	781
283.55 K, 1680 kPa	–	793.9
283.55 K, 7960 kPa	–	878.4
283.6 K, 11830 kPa	–	908.6
283.6 K, 14620 kPa	–	950.1
283.61 K, 10090 kPa	–	894.7
283.63 K, 4380 kPa	–	815.4
283.65 K, 4110 kPa	–	811.4
283.67 K, 5540 kPa	–	834.1
283.72 K, 2750 kPa	–	803.7
288.15 K, 100 kPa	1111.12	–
288.15 K, 2000 kPa	1112.07	–
288.15 K, 4000 kPa	1113.07	–
288.15 K, 6000 kPa	1114.04	–
288.15 K, 8000 kPa	1115.03	–
288.15 K, 10000 kPa	1116.03	–
288.15 K, 12000 kPa	1116.94	–
288.15 K, 14000 kPa	1117.9	–
288.15 K, 20000 kPa	1120.72	–
288.15 K, 30000 kPa	1125.21	–
288.15 K, 40000 kPa	1129.56	–
288.15 K, 50000 kPa	1133.75	–
288.15 K, 60000 kPa	1137.81	–
293.15 K, 100 kPa	1107.68	–
293.15 K, 2000 kPa	1108.68	–
293.15 K, 4000 kPa	1109.68	–
293.15 K, 6000 kPa	1110.66	–
293.15 K, 8000 kPa	1111.66	–
293.15 K, 10000 kPa	1112.63	–
293.15 K, 12000 kPa	1113.61	–
293.15 K, 14000 kPa	1114.55	–
293.15 K, 20000 kPa	1117.38	–
293.15 K, 30000 kPa	1121.95	–
293.15 K, 40000 kPa	1126.31	–
293.15 K, 50000 kPa	1130.56	–
293.15 K, 60000 kPa	1134.64	–
293.65 K, 130 kPa	–	403.7
293.65 K, 2010 kPa	–	409.7
293.65 K, 4090 kPa	–	423
293.65 K, 4310 kPa	–	418.7
293.65 K, 6110 kPa	–	433.3
293.65 K, 6580 kPa	–	434.4
293.65 K, 8080 kPa	–	447.6
293.65 K, 10200 kPa	–	458.3
293.65 K, 12100 kPa	–	466.6
293.65 K, 14310 kPa	–	478.8
293.65 K, 14330 kPa	–	483.6
298.15 K, 100 kPa	1104.31	–
298.15 K, 2000 kPa	1105.26	–
298.15 K, 4000 kPa	1106.28	–
298.15 K, 6000 kPa	1107.31	–
298.15 K, 8000 kPa	1108.29	–
298.15 K, 10000 kPa	1109.29	–
298.15 K, 12000 kPa	1110.27	–
298.15 K, 14000 kPa	1111.29	–
298.15 K, 20000 kPa	1114.12	–
298.15 K, 30000 kPa	1118.74	–
298.15 K, 40000 kPa	1123.16	–
298.15 K, 50000 kPa	1127.47	–
298.15 K, 60000 kPa	1131.57	–
303.15 K, 100 kPa	1100.92	–
303.15 K, 2000 kPa	1101.88	–
303.15 K, 4000 kPa	1102.9	–
303.15 K, 6000 kPa	1103.93	–
303.15 K, 8000 kPa	1104.97	–
303.15 K, 10000 kPa	1105.98	–
303.15 K, 12000 kPa	1107.03	–
303.15 K, 14000 kPa	1107.96	–
303.15 K, 20000 kPa	1110.85	–
303.15 K, 30000 kPa	1115.56	–
303.15 K, 40000 kPa	1120.01	–
303.15 K, 50000 kPa	1124.34	–
303.15 K, 60000 kPa	1128.52	–
